pIC50: −log10 of the molar value.
Key:
HEC1B = experiment: Anti-proliferation assay (MTT, 72 h), HEC1B; assay type: cell-based; details: Homo sapiens, HEC-1B, HEC1B cells
Experimental: (§1) Human cancer cell lines HCT116 and HEC1B were cultured in media with 10% FBS (GIBCO, Invitrogen Corporation, NY, USA) at 37 °C in a 5% (v/v) CO2 humidified incubator. The logarithmic growth phase cells were seeded in a 96-well plate with a density of 1 × 10^5 cells/mL, cultured at 37 °C, 5% CO2. Until the cells were 90% confluent, the medium containing compound was added to incubate for 72 h, and then the cell viability was tested by MTT analysis. Taking the drug concentration as the abscissa and the percentage of proliferation inhibitory activity corresponding to each concentration as the ordinate, using Graphpad Prism 5 to do nonlinear regression, the IC50 value of each compound was calculated.

ERK 2 = ERK 2 (Homo sapiens, UniProt P28482); experiment: Enzymatic inhibition assay (ADP-Glo Plus luminescence kinase assay), ERK2; assay type: biochemical; details: 100 nM compound
Chain of ERK 2 (P28482 whole entry): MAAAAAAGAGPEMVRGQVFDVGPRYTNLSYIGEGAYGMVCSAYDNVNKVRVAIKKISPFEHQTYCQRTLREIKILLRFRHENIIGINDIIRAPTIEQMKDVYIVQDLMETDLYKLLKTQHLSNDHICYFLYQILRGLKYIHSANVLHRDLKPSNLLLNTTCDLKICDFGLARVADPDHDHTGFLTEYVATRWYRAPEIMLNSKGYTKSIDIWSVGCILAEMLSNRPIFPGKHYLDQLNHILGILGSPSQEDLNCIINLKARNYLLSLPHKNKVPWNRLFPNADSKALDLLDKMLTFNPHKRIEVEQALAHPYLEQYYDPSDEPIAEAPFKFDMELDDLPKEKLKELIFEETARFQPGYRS
Experimental: (§2) All compounds were diluted in 10% DMSO and tested in 10-dose with 3-fold serial dilution starting at a concentration of 1 μM. Of the dilution, 5 µL was added to a 50 µL reaction so that the final concentration of DMSO is 1% in all of reactions. After all of the reaction mixtures were conducted at 30 °C for 40 min, the assay was performed using ADP-Glo Plus luminescence kinase assay kit. The luminescence signal and the intensity of the luminescence signal value were detected using a multi-well spectrophotometer (the MD-SpectraMax M5 multifunctional microplate reader). It was directly proportional to the inhibition of enzyme activity.

Solubility = assay type: physicochemical; details: relative to parent after introducing a hydrophilic group at the pyrazole NH
HCT116 = experiment: Anti-proliferation assay (MTT, 72 h), HCT116; assay type: cell-based; details: Homo sapiens, HCT-116, HCT116 cells
Experimental: as §1

PI3Kα = PI3Kα (Homo sapiens, UniProt P42336); experiment: Enzymatic inhibition assay (ADP-Glo Plus luminescence kinase assay), PI3Kα; assay type: biochemical; details: 100 nM compound
Chain of PI3Kα (P42336 whole entry): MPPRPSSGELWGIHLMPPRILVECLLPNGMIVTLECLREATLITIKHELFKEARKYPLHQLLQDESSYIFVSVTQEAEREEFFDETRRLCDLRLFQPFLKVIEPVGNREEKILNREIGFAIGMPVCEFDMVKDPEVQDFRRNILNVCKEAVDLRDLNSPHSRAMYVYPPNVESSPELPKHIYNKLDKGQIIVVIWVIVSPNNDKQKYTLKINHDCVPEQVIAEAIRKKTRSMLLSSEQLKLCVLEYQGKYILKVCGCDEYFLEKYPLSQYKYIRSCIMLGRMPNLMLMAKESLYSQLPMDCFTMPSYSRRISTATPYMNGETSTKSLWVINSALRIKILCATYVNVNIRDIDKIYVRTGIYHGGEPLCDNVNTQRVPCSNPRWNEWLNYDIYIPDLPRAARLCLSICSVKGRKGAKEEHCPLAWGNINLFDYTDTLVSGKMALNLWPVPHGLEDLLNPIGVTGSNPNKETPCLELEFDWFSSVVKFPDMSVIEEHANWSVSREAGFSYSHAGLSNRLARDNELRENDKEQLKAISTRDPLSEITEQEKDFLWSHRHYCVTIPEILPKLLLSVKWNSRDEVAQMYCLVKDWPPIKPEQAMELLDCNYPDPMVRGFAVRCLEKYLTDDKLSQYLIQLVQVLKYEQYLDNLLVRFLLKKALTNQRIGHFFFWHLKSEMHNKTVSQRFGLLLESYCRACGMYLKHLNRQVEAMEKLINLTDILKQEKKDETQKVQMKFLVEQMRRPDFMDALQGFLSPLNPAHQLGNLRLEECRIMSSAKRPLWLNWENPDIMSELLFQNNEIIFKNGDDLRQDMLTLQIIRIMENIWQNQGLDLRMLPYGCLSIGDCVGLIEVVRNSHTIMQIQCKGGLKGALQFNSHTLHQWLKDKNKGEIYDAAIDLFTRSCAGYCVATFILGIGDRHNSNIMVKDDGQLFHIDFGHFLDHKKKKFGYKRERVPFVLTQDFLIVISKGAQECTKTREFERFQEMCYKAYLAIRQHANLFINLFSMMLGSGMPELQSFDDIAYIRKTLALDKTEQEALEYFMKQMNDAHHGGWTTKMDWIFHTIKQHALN
Chain of PI3Kα (P27986 whole entry partner): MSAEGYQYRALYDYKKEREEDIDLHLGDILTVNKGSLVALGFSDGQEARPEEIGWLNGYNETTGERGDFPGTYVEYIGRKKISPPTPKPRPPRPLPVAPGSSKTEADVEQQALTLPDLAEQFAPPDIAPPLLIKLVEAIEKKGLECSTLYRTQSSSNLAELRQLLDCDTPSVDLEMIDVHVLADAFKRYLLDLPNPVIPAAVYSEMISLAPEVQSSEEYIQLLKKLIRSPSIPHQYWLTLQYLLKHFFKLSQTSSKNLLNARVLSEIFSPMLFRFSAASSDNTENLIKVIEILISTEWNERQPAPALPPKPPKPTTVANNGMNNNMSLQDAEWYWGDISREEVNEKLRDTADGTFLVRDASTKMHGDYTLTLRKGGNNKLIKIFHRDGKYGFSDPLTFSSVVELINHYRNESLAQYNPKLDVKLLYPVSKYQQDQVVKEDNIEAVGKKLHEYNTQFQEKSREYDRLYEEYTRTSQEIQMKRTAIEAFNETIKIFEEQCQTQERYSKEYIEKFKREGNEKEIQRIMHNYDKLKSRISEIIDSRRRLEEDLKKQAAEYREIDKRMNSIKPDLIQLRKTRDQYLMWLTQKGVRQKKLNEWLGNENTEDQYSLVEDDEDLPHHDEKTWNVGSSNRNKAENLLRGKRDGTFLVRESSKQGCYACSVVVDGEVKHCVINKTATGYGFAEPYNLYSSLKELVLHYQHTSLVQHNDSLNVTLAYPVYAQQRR
Experimental: as §2, with “The 50 µL reaction mixture contains 40 mM Tris-HCl, pH 7.4, 10 µM ATP, 10 mM MgCl2, 0.1 mg/mL BSA, 1 mM DTT, 0.2 ug/mL ERK 2, ERK 1, PI3Kα, PI3Kβ, PI3Kγ or PI3Kδ and 100 uM lipid substrate. All” for “All”, “activity. The experimental results were converted into active percentages, a dose-response curve is drawn, and the IC50 value of inhibition was calculated using […] PRISM 5 nonlinear regression.” for “activity.”

inhibition at 0.1 µM (ERK 2): 21.4%
solubility (Solubility): ameliorated
pIC50 (HCT116): 5.75
inhibition at 0.1 µM (PI3Kα): 63.8%
Structure (SMILES): O=C(Nc1ncc2ncc(-c3cnn(CCN4CCOCC4)c3)cc2n1)NC1CCCC1 [32l, 1-Cyclopentyl-3-(7-(1-(2-morpholinoethyl)-1H-pyrazol-4-yl)pyrido[3,2-d]pyrimidin-2-yl)urea]
pIC50 (HEC1B): 5.44

From article PMC7730961, “Discovery of Novel Dual Extracellular Regulated Protein Kinases (ERK) and Phosphoinositide 3-Kinase (PI3K) Inhibitors as a Promising Strategy for Cancer Therapy” (Molecules, 2020)
